Experimental data reported in BindingDB's records for doi:10.1016/j.bmcl.2011.07.125 (Pfizer, 2011).

Assay: Antagonist activity at H4R in human eosinophils assessed as inhibition of histamine-induced shape change by GAFS assay

IC50: 0.65 nM
Structure (SMILES): CN[C@@H]1CCN(c2cc(NCC3CC3)nc(N)n2)C1
